Data as given in paper PMC10480608 (Heliyon, 2023).
Where two headings read alike, the source gives them in different places.

What was measured:
[1] = system: MDA-231 breast cancer cells; test: MTT cytotoxicity assay, MDA-231; assay type: cell-based, human
[2] = system: normal human dermal/fibroblasts; test: MTT cytotoxicity assay, normal fibroblasts; assay type: cell-based; settings: read-out: IC50 ± SD, Fibro dental, 72 h
[3] = system: MCF-7 (human breast adenocarcinoma); test: MTT cytotoxicity assay, MCF-7; assay type: cell-based; settings: read-out: IC50 ± SD, MCF7
[4] = system: DU145 prostate cancer cells; test: MTT cytotoxicity assay, DU145; assay type: cell-based, human
[5] = system: HepG2 (hepatocellular carcinoma); test: MTT cytotoxicity assay, HepG2; assay type: cell-based, human; settings: read-out: IC50 ± SD, HEPG-2
[6] = system: PC3 (human prostate carcinoma); test: MTT cytotoxicity assay, PC3; assay type: cell-based; settings: 72 h, read-out: IC50 ± SD, PC-3
[7] = Homo sapiens, MDA-MB-231, read-out: IC50 ± SD, MDA-231
[8] = Homo sapiens, DU-145, read-out: IC50 ± SD, DU145

N.N.[Cl][Pt][Cl] [Cisplatin, reference compound]
IC50 ([1]; read-out: IC50 ± SD, MDA-231, Breast cancer cells, MTT, mean ± SD): 16200 ± 1600 nM
IC50 ([2]; Normal cells, MTT, mean ± SD): > 100 µM
IC50 ([3]; Breast cancer cells, MTT, 72 h, mean ± SD): 14.6 ± 2.8 µM
IC50 ([4]; read-out: IC50 ± SD, DU145, Prostate cancer cells, MTT, mean ± SD): 8.5 ± 1.7 µM
IC50 ([5]; Liver cancer cells, MTT, 72 h, mean ± SD): 9.64 ± 1.7 µM

Cc1cccc(Cn2cc(CN3CCN(c4c([N+](=O)[O-])nc(C)n4Cc4ccccc4)CC3)nn2)c1 [Compound 9e, 1-(N1-benzyl-2-methyl-4-nitro-imidazole-5-yl)-4-((N1-(3-methylbenzyl)-1H-1,2,3-triazol-4-yl)methyl)piperazine]
IC50 [6]: > 500 µM
IC50 ([2]; Homo sapiens, Fibroblast): > 500 µM
IC50 ([3]; Homo sapiens, MCF7, 72 h): 79 ± 21 µM
IC50 ([5]; Homo sapiens, HepG2, 72 h): > 500 µM

Cc1nc([N+](=O)[O-])c(N2CCN(Cc3cn(Cc4ccccc4Br)nn3)CC2)n1Cc1ccccc1 [Compound 9i, 1-(N1-benzyl-2-methyl-4-nitro-imidazole-5-yl)-4-((N1-(2-bromobenzyl)-1H-1,2,3-triazol-4-yl)methyl)piperazine]
IC50 [6]: > 500 µM
IC50 ([2]; Homo sapiens, Fibroblast): > 500 µM
IC50 ([3]; Homo sapiens, MCF7, 72 h): 106 ± 12.3 µM
IC50 ([5]; Homo sapiens, HepG2, 72 h): > 500 µM

Cc1nc([N+](=O)[O-])c(N2CCN(Cc3cn(Cc4ccccc4F)nn3)CC2)n1Cc1ccccc1 [Compound 9j, 1-(N1-benzyl-2-methyl-4-nitro-imidazole-5-yl)-4-((N1-(2-fluorobenzyl)-1H-1,2,3-triazol-4-yl)methyl)piperazine]
IC50 [6]: > 500 µM
IC50 ([2]; Homo sapiens, Fibroblast): > 500 µM
IC50 ([3]; Homo sapiens, MCF7, 72 h): 151 ± 20 µM
IC50 ([5]; Homo sapiens, HepG2, 72 h): > 500 µM

Cc1nc([N+](=O)[O-])c(N2CCN(Cc3cn(CC(=O)c4ccccc4)nn3)CC2)n1Cc1ccccc1 [Compound 10a, 2-(4-((4-(1-benzyl-2-methyl-4-nitro-1H-imidazole-5-yl)piperazin-1-yl)methyl)-1H-1,2,3-triazol-1-yl)-1-phenylethanone]
IC50 [1, 7]: 1150 ± 500 nM
IC50 ([3]; Homo sapiens, MCF7, 72 h): 112 ± 30 µM
IC50 [4, 8]: 3.16 ± 0.03 µM

Cc1nc([N+](=O)[O-])c(N2CCN(Cc3cn(CC(=O)c4ccc(Br)cc4)nn3)CC2)n1Cc1ccccc1 [Compound 10b, 2-(4-((4-(1-benzyl-2-methyl-4-nitro-1H-imidazole-5-yl)piperazin-1-yl)methyl)-1H-1,2,3-triazol-1-yl)-1-(4-bromophenyl)ethanone]
IC50 [1, 7]: 1330 ± 900 nM
IC50 ([3]; Homo sapiens, MCF7, 72 h): 372 ± 30 µM
IC50 [4, 8]: 8.95 ± 1.7 µM

COc1cccc(C(=O)Cn2cc(CN3CCN(c4c([N+](=O)[O-])nc(C)n4Cc4ccccc4)CC3)nn2)c1 [Compound 10c, 2-(4-((4-(1-benzyl-2-methyl-4-nitro-1H-imidazole-5-yl)piperazin-1-yl)methyl)-1H-1,2,3-triazol-1-yl)-1-(3-methoxyphenyl)ethanone]
IC50 [1, 7]: 1380 ± 1300 nM
IC50 ([2]; Homo sapiens, Fibroblast): > 500 µM
IC50 ([3]; Homo sapiens, MCF7, 72 h): 585 ± 37 µM
IC50 [4, 8]: 15 ± 1.6 µM

Cc1cccc(-n2cc(CN3CCN(c4c([N+](=O)[O-])nc(C)n4Cc4ccccc4)CC3)nn2)c1 [Compound 11 m, 1-(N1-benzyl-2-methyl-4-nitro-1H-imidazole-5-yl)-4-((N1-(m-tolyl)-1H-1,2,3-triazol-4-yl)methyl)piperazine]
IC50 [6]: > 500 µM
IC50 ([2]; Homo sapiens, Fibroblast): > 500 µM
IC50 ([3]; Homo sapiens, MCF7, 72 h): 161 ± 16 µM
IC50 ([5]; Homo sapiens, HepG2, 72 h): > 500 µM

Cc1nc([N+](=O)[O-])c(N2CCN(Cc3cn(-c4ccc(Cl)cc4)nn3)CC2)n1Cc1ccccc1 [Compound 11j, 1-(N1-benzyl-2-methyl-4-nitro-1H-imidazole-5-yl)-4-((N1-(4-chlorophenyl)-1H-1,2,3-triazol-4-yl)methyl)piperazine]
IC50 [6]: > 500 µM
IC50 ([2]; Homo sapiens, Fibroblast): > 500 µM
IC50 ([3]; Homo sapiens, MCF7, 72 h): 279 ± 20 µM
IC50 ([5]; Homo sapiens, HepG2, 72 h): > 500 µM

Cc1nc([N+](=O)[O-])c(N2CCN(Cc3cn(-c4ccc5c(c4)OCO5)nn3)CC2)n1Cc1ccccc1 [Compound 11p, 1-((N1-(benzo[d] [1,3]dioxol-5-yl)-1H-1,2,3-triazol-4-yl)methyl)-4-(N1-benzyl-2-methyl-4-nitro-1H-imidazole-5-yl) piperazine]
IC50 [1, 7]: 11600 ± 1600 nM
IC50 ([3]; Homo sapiens, MCF7, 72 h): 52 ± 30 µM
IC50 [4, 8]: 0.803 ± 0.04 µM

COc1cccc2c1C(=O)c1c(O)c3c(c(O)c1C2=O)C[C@@](O)(C(=O)CO)C[C@@H]3O[C@H]1C[C@H](N)[C@H](O)[C@H](C)O1 [Doxorubicin, reference compound]
IC50 [1, 7]: 2300 ± 1300 nM
IC50 [6]: 0.62 ± 0.06 µM
IC50 ([2]; Homo sapiens, Fibroblast): > 100 µM
IC50 ([3]; Homo sapiens, MCF7, 72 h): 0.64 ± 0.04 µM
IC50 [4, 8]: 0.66 ± 0.04 µM
IC50 ([5]; Homo sapiens, HepG2, 72 h): 0.61 ± 0.05 µM
